One data set concerns GMK cells. Put plainly: Cytotoxicity observed microscopically in GMK cells (Test Example 2). The class given is cell-based, green monkey. Also on record: key: -: no cytotoxicity; ±: slight cytotoxicity; +: cytotoxicity with observable antiviral effect. The following applies: in parentheses. On the procedure: (§1) Confluent GMK cells (derived from green monkey kidney) in 96-well plates were infected with HSV-1 (Miyama strain) in the presence of various concentrations of test compounds. After incubation, virus-induced cytopathic effect (CPE), inhibitory effect of CPE by the test compound and cytotoxicity were microscopically observed. The virus titer (TCID₅₀) was determined from CPE of virus infected culture. Ancivirus effects of test compounds were calculated from TCID₅₀ values of test compound treated and control cultures and represented by ΔTCID₅₀(log₁₀). Test compounds were dissolved in MEM medium, ethanol or DMSO to 10 mg/ml, and diluted with MEM medium supplemented with 0.5% fetal bovine serum.
In Table 4, parentheses indicate the cytotoxicity of these compounds. (-), (±) and (+) indicate no cytotoxicity, slight cytotoxicity and cytotoxicity with observable antiviral effect, respectively.

For data set [1], the system named is herpes simplex virus type 1 (Miyama strain). Nature of the data set: Antiviral activity against HSV-1 in vitro, inhibition of virus-induced CPE in GMK cells (Test Example 2). It is filed as cell-based, HSV-1 (Miyama strain). To be noted: 0.5% fetal bovine serum. The protocol:
as §1

For the compound “2-[4-(2-Trifluoromethylphenyl)-1-piperazinyl]-7-(2-deoxy-α-and β-D-ribofuranosyl)hypoxanthine and 2-[4-(2-Trifluromethylphenyl)-1-piperazinyl]-9-(2-deoxy-α- and β-D-ribofuranosyl)hypoxanthine [Compound of Example 21]”, the cytotoxicity entry with GMK cells (10 µg/ml) was “-”. In addition, the “Antiviral Activity (ΔTCID₅₀(log₁₀))” value in data set [1] (10 µg/ml) is given as 1.00 log₁₀.

Take `CCCCC/C=C\C/C=C\CCCCCCCC(=O)N1CCN(c2ccccc2C(F)(F)F)CC1` [Compound of Example 17, 1-(2-Trifluoromethylphenyl)-4-[(Z,Z)-9,12-octadecadienoyl]piperazine]: in the data set on GMK cells (10 µg/ml), the cytotoxicity result is “-”. For the same compound, in data set [1] (10 µg/ml), the “Antiviral Activity (ΔTCID₅₀(log₁₀))” value was found to be 1.56 log₁₀.

As for `CC1(C)[C@@H](O)CC[C@]2(C)[C@H]3CC=C4[C@@H]5C[C@@](C)(C(=O)N6CCN(c7ccccc7C(F)(F)F)CC6)CC[C@]5(C)CC[C@@]4(C)[C@]3(C)CC[C@@H]12` [Compound of Example 18, 4-(2-Trifluoromethylphenyl)-1-(3β-hydroxy-18β-olean-12-en-30-oyl)piperazine], the cytotoxicity result with GMK cells (10 µg/ml) is recorded as “-”. In addition, the “Antiviral Activity (ΔTCID₅₀(log₁₀))” value in data set [1] (10 µg/ml) stood at 1.67 log₁₀.

For `O=c1[nH]c(N2CCN(c3ccccc3C(F)(F)F)CC2)nc2nc[nH]c12` [Compound of Example 20, 2-[4-(2-Trifluoromethylphenyl)-1-piperazinyl]hypoxanthine], the cytotoxicity result with GMK cells (5 µg/ml) is given as “-”; with GMK cells (10 µg/ml) it was “±”. For the same compound, the “Antiviral Activity (ΔTCID₅₀(log₁₀))” value is 1.66 log₁₀ in data set [1] (5 µg/ml) and over 2.83 log₁₀ in data set [1] (10 µg/ml).

`COc1ccc2[nH]c(C(=O)N3CCN(c4ccccc4C(F)(F)F)CC3)cc2c1` [Compound of Example 22, 1-(5-Methoxyindolyl-2-carbonyl)-4-(2-trifluoromethyl)piperazine]: the cytotoxicity result in the data set with GMK cells (10 µg/ml) is “-”. In addition, the “Antiviral Activity (ΔTCID₅₀(log₁₀))” value in data set [1] (10 µg/ml) turned out to be 0.64 log₁₀.

As to `CCn1cc(C(=O)O)c(=O)c2cc(F)c(N3CCN(c4ccccc4C(F)(F)F)CC3)cc21` [Compound of Example 23, 1-Ethyl-6-fluoro-7-[4-(2-trifluoromethylphenyl)-1-piperazinyl]-1,4-dihydro-4-oxoquinoline-3-carboxylic acid], the figures for the cytotoxicity result in the data set with GMK cells (5 µg/ml) and in the data set on GMK cells (10 µg/ml) were “±” and “+”, respectively. The “Antiviral Activity (ΔTCID₅₀(log₁₀))” value in data set [1] (5 µg/ml) and in data set [1] (10 µg/ml) was over 3.17 log₁₀ throughout.

With `Cc1cc(O)c2c(=O)c(C)c(-c3ccc(OC(=O)CN4CCN(c5ccccc5C(F)(F)F)CC4)cc3)oc2c1` [Compound of Example 24, 2-[4-(4-(2-Trifluoromethylphenyl)-1-piperazinylacetoxy)phenyl]-5-hydroxy-3,7-dimethyl-4H-1-benzopyran-4-one], the cytotoxicity entry in the data set with GMK cells (10 µg/ml) is on record as “-”. In data set [1] (10 µg/ml), the “Antiviral Activity (ΔTCID₅₀(log₁₀))” value is reported as 0.33 log₁₀.

As for `CC[C@@]12C=C(C(=O)NCCN3CCN(c4ccccc4OC)CC3)n3c4c(c5ccccc53)CCN(CCC1)[C@H]42` [Compound of Example 25, N-[4-(2-Methoxyphenyl)piperazine-1-yl]ethyl-(3α,16α)-eburunamenine-14-caboxamide], the cytotoxicity entry in the data set with GMK cells (5 µg/ml) and in the data set on GMK cells (10 µg/ml) was “-” throughout. Besides, the figures for the “Antiviral Activity (ΔTCID₅₀(log₁₀))” value in data set [1] (5 µg/ml) and in data set [1] (10 µg/ml) were 0.67 log₁₀ and 2.27 log₁₀, respectively.

For the compound `CC[C@@]12C=C(C(=O)NCCN3CCN(c4ccccc4Cl)CC3)n3c4c(c5ccccc53)CCN(CCC1)[C@H]42` [Compound of Example 26, N-[4-(2-Chlorophenyl)piperazine-1-yl]ethyl-(3α,16α)-eburunamenine-14-caboxamide], the cytotoxicity result was “-” in the data set with GMK cells (5 µg/ml) and “+” in the data set on GMK cells (10 µg/ml). For the same compound, the “Antiviral Activity (ΔTCID₅₀(log₁₀))” value in data set [1] (5 µg/ml) was 2.00 log₁₀; in data set [1] (10 µg/ml) it was over 3.17 log₁₀.

The record behind these values is patent publication EP0548798A1, “Antiviral agent” (SANWA KAGAKU KENKYUSHO CO., LTD., priority 1991, dated 1993).
